Data published in article PMC7760004, “Hydrocarbon-Stapled Peptide Based-Nanoparticles for siRNA Delivery” (Nanomaterials, 2020).
Peptide text beside a SMILES is read from it. * marks the point of attachment. FITC = O=C1OC2(c3ccc(O)cc3Oc3cc(O)ccc32)c2ccc(NC(=S)*)cc21; Ahx = NCCCCCC(=O)O

What was measured:
[1] = Circular dichroism, determination of helical content; type: physicochemical; details: water/TFE (95/5)
Protocol: Circular dichroism experiments were carried out using a Jasco J815 spectropolarimeter. Spectra (Jasco, Easton, MD, USA) were typically recorded with 100 μM of peptides dissolved in a water/TFE mixture (95/5), pH 7, using a 1 mm pathlength CD cuvette at 20 °C, over a wavelength range of 190–260 nm. The peptide concentrations were normalized measuring the OD at 490 nm considering a molar coefficient extinction (ε490) for the FITC of 76,900 cm^−1 M^−1. Continuous scanning mode was used, with a response of 1.0 s with 0.1 nm steps and a bandwidth of 2 nm. The signal to noise ratio was improved by acquiring each spectrum over an average of two scans. Baseline was corrected by subtracting the background from the sample spectrum. Alpha helical content was determined using the following equation: % Helix = ([θ])obs × 100)/(−39,500 × (1 − 2.57/n), where ([θ])obs is the mean residue ellipticity at 222 nm and n the number of peptide bonds.

MDA-MB-231 cells = assay: Cellular uptake of FITC-stapled peptides (plate-reader fluorescence); details: MDA-MB-231, 5 µM FITC-peptide, 4 h
Protocol: MDA-MB-231 cells were seeded in black 96-well plate in 200 μL of their corresponding medium. After 24 h of cell growth, cells were treated with 5 µM concentration of FITC-stapled peptides for 4 h. Total fluorescence (TF) was measured using CLARIOstar® High Performance Monochromator Multimode Microplate Reader (BMG Labtech, Ortenberg, Germany) at excitation/emission of 483-14/530-30 nm. Cells were washed three times with PBS and remaining fluorescence (RF) was measured using the same conditions. The percentage of uptake values were presented as relative mean fluorescence and normalized with respect to Penetratin used as a standard control and set at 100%.

## CC[C@H](C)[C@H](NC(=O)[C@H](C)NC(=O)[C@H](CCCNC(=N)N)NC(=O)[C@H](CCCNC(=N)N)NC(=O)CCCCCNC(=S)Nc1ccc2c(c1)C(=O)OC21c2ccc(O)cc2Oc2cc(O)ccc21)C(=O)N[C@H](C(=O)N[C@H](C(=O)N[C@@H](C)C(=O)N[C@@H](CCCNC(=N)N)C(=O)N[C@@H](CCCNC(=N)N)C(=O)N[C@@H](CS)C(N)=O)[C@@H](C)CC)[C@@H](C)CC [JMV6579] ({FITC-Ahx}-RRAIIIARRC-NH2)
[1]; CD, 100 μM peptide, pH 7, 20 °C, from mean residue ellipticity at 222 nm
  α Helix (%): 5%
[1]; far-UV CD, 20 °C
  CD profile (folding): remained partially unfolded
MDA-MB-231 cells
  ability to enter cells (uptake, in words): almost not able to enter cells
